The structures appear in SMILES notation. pIC50: −log10 of the molar value.

Assay [1] deals with T1, Human MAT2A (Homo sapiens, UniProt P31153).
T1 construct: Human MAT2A: Cepter, amino acids 1-395; purchased Cepter clone ID 329, lot 00023-123; clone ID 334, lot 00023-148
The assay can be described thus: Phosphate Sensor Fluorescence Assay (Biologic Example A). Format: biochemical. Particulars: MAT2A enzyme inhibition, Biological Example A, 500 uM L-methionine, 500 uM ATP. The procedure:
(§1) The ability of the compound of present disclosure to inhibit MAT2A enzyme was determined using a Phosphate Sensor Fluorescence Assay described below.
(§2) MAT2A enzyme is incubated with a test compound in DMSO or DMSO and its substrates (L-methionine and ATP) in a microtiter plate. The enzymatic reaction is stopped by the addition of Working Phosphate Sensor Mixture. The plate is analyzed for fluorescence at 450 nm. The high control (DMSO with enzyme and its substrates) gives high fluorescence which represents no inhibition of enzymatic activity while the low control (DMSO with MAT2A substrates and no enzyme) gives low fluorescence which represents full inhibition of enzymatic activity.
Human MAT2A: Cepter, amino acids 1-395
Assay Buffer: 50 mM Tris, pH 7.5/50 mM KCl/10 mM MgCl2/0.01% Brij-35/1 mM DTT/0.1% BGG/40 nM PNP/6 uM 7-MEG
MAT2A: 10 nM for Cepter clone ID 329, lot 00023-123 before the addition of Working Phosphate Sensor Mixture • 5 nM for Cepter clone ID 334, lot 00023-148 before the addition of Working Phosphate Sensor Mixture
(§3) L-methionine: 500 uM before the addition of Working Phosphate Sensor Mixture
ATP: 500 uM before the addition of Working Phosphate Sensor Mixture Procedure:
(§4) For the assay, a mixture of 1 mM L-methionine/1 mM ATP (2× final pre-stopped concentration) in assay buffer; MAT2A (2× final pre-stopped concentration) in Assay Buffer and Working Phosphate Sensor Mixture (1.5 uM Phosphate Sensor/30 mM EDTA in Assay Buffer, which is 3× final concentrations) were prepared. Test compounds or DMSO were added to the appropriate well suing D300e digital dispenser. 5 μl/well of Assay Buffer was added to the wells corresponding to the negative control and 5 μl/well of MAT2A was added to all the wells except for those corresponding to the negative control. After incubating the plate at room temperature for 15 minutes, 5 μl/well of the 1 mM L-methionine/1 mM ATP mixture was added to all wells. The plate was centrifuged at 1000 rpm for 1 minute and then incubated at room temperature for 1 hour. 5 μl of the Working Phosphate Sensor Mixture was added to all wells and the plate was centrifuged at 1000 rpm for 1 minute. The plate was read for fluorescence at 450 nm after exciting at 430 nm.
(§5) Percent inhibition was calculated in Chemical and Biological Information System (CBIS), (ChemInnovation Software Inc.). Curves were fitted by CBIS as % inhibition vs. log [compound concentration] using a 4-parameter inhibition model.
(§6) Fit=(A+((B−A)/(1+((C/x)^D))))
(§7) Compounds 1.001-1.021 were tested using the procedure described in Biological Example A, described above. Compounds 1.022-1.026 were tested using the procedure described in Biological Example B, described above.

For assay [2], the target named is T1, Human MAT2A. In words: Phosphate Sensor Fluorescence Assay (Biologic Example B). Particulars: MAT2A enzyme inhibition, Biological Example B; 5.8 nM MAT2A, 500 uM L-methionine, 500 uM ATP; class symbols. Format: biochemical. The procedure:
as §1, §2
MAT2A: 5.8 nM MAT2A (1-395), Cepter, clone ID 334, lot 00023-148 before the addition of Working Phosphate Sensor Mixture
as §3
ATP: 500 uM before the addition of Working Phosphate Sensor Mixture
as §4, with “well using a Beckman Coulter Echo 550 acoustic liquid handler. 10 µL/well” for “well suing D300e digital dispenser. 5 μl/well”, “and 10 µL/well” for “and 5 μl/well”, “minutes, 10 μL/well” for “minutes, 5 μl/well”, “hour. 10 μL” for “hour. 5 μl”, “430 nm on a Tecan Spark microplate reader.” for “430 nm.”
as §5, §6, §7

T1 sequence (P31153 whole entry, the tested form may be a part): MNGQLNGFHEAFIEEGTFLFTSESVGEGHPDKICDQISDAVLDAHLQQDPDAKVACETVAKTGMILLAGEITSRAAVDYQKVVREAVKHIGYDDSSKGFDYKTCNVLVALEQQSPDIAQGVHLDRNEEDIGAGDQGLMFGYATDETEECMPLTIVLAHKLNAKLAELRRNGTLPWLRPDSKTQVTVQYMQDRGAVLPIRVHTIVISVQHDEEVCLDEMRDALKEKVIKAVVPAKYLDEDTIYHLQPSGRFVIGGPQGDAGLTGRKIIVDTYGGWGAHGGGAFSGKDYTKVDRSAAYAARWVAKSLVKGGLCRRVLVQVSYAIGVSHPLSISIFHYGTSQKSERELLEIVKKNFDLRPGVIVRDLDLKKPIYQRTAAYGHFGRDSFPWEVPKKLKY

The term pIC50 denotes −log10 of the IC50, conventionally taken in molar units. Low readings indicate a high IC50, high ones a low IC50. At Human MAT2A [1] (given as bound), `Cn1c(=O)cc(-c2ccccc2)c2cc(Cl)ccc21` [Compound 1.001, 6-chloro-1-methyl-4-phenylquinolin-2(1H)-one] had a pIC50 of less than 5.00. Regarding `O=c1[nH]c2ccccc2c(-c2ccccc2)c1Sc1ncnc2sccc12` [Compound 1.002], the pIC50 at Human MAT2A [1] (class symbols) is 6.00 to 6.30. For `O=c1[nH]c2ccc(Cl)cc2c(-c2ccccc2)c1S(=O)(=O)c1ccccc1` [Compound 1.003], the pIC50 against Human MAT2A [1] (class symbols) is 5.00 to 6.00. Consider `COc1c(-c2ccccc2)c2cc(Cl)ccc2[nH]c1=O` [Compound 1.004, 6-chloro-3-methoxy-4-phenylquinolin-2(1H)-one], for which the pIC50 against Human MAT2A [1] (class symbols) was 6.30 to 6.70. Compound `CS(=O)(=O)c1c(-c2ccccc2)c2cc(Cl)ccc2[nH]c1=O` [Compound 1.005, 6-chloro-3-(methylsulfonyl)-4-phenylquinolin-2(1H)-one] showed a pIC50 against Human MAT2A [1] (class symbols) of 5.00 to 6.00.

In turn, `O=c1[nH]c2ccc(Cl)cc2c(-c2ccccc2)c1Sc1ncnc2sccc12` [Compound 1.006, 6-chloro-4-phenyl-3-(thieno[2,3-d]pyrimidin-4-ylthio)quinolin-2(1H)-one] had a pIC50 at Human MAT2A [1] (class symbols) of 5.00 to 6.00.

At Human MAT2A [1] (unit inferred), `CNc1c(-c2ccccc2)c2cc(Cl)ccc2[nH]c1=O` [Compound 1.007, 6-chloro-3-(methylamino)-4-phenylquinolin-2(1H)-one] gave a pIC50 of less than 5.00. On to `CN(C)c1c(-c2ccccc2)c2cc(Cl)ccc2[nH]c1=O` [Compound 1.008, 6-chloro-3-(dimethylamino)-4-phenylquinolin-2(1H)-one], for which the pIC50 at Human MAT2A [1] (class symbols) was 5.00 to 6.00. On Human MAT2A [1] (class symbols), `COc1c(-c2ccccc2)c2cc(Br)ccc2[nH]c1=O` [Compound 1.009, 6-bromo-3-methoxy-4-phenylquinolin-2(1H)-one] gave a pIC50 of 6.70 to 8.00. Still for that read-out and setting: the same measure for `O=c1[nH]c2ccc(Cl)cc2c(-c2ccccc2)c1O` [Compound 1.010, 6-chloro-3-hydroxy-4-phenylquinolin-2(1H)-one]: 6.70 to 8.00; for `COc1c(-c2ccccc2)c2cc(C3CC3)ccc2[nH]c1=O` [Compound 1.011, 6-cyclopropyl-3-methoxy-4-phenylquinolin-2(1H)-one]: 6.70 to 8.00. The same measure, in the same setting: the same measure for `COc1c(-c2cccnc2)c2cc(Cl)ccc2[nH]c1=O` [Compound 1.012, 6-chloro-3-methoxy-4-(pyridin-3-yl)quinolin-2(1H)-one]: 6.30 to 6.70; for `O=c1[nH]c2ccc(Cl)cc2c(-c2ccccc2)c1Sc1nc2ccccc2s1` [Compound 1.013, 3-(benzo[d]thiazol-2-ylthio)-6-chloro-4-phenylquinolin-2(1H)-one]: 5.00 to 6.00. In the case of `CNS(=O)(=O)c1c(-c2ccccc2)c2cc(Cl)ccc2[nH]c1=O` [Compound 1.014, 6-chloro-N-methyl-2-oxo-4-phenyl-1,2-dihydroquinoline-3-sulfonamide], the pIC50 against Human MAT2A [1] (class symbols) is 5.00 to 6.00. Still for that read-out and setting: the same measure for `O=c1[nH]c2ccc(Cl)cc2c(-c2ccccc2)c1S` [Compound 1.015, 6-chloro-3-mercapto-4-phenylquinolin-2(1H)-one]: 6.70 to 8.00; for `CCCNS(=O)(=O)c1c(-c2ccccc2)c2cc(Cl)ccc2[nH]c1=O` [Compound 1.016, 6-chloro-2-oxo-4-phenyl-N-propyl-1,2-dihydroquinoline-3-sulfonamide]: 5.00 to 6.00; for `Cc1ccccc1-c1c(O)c(=O)[nH]c2ccc(Cl)cc12` [Compound 1.017, 6-chloro-3-hydroxy-4-(o-tolyl)quinolin-2(1H)-one]: 6.70 to 8.00.

`Cc1ccccc1-c1c(O)c(=O)[nH]c2ccc(C(F)(F)F)cc12` [Compound 1.018, 3-hydroxy-4-(o-tolyl)-6-(trifluoromethyl)quinolin-2(1H)-one] showed a pIC50 on Human MAT2A [1] (class symbols) of 6.70 to 8.00. At Human MAT2A [1] (class symbols), `COc1c(-c2ccccc2)c2cc(C(F)(F)F)ccc2[nH]c1=O` [Compound 1.019, 3-methoxy-4-phenyl-6-(trifluoromethyl)quinolin-2(1H)-one] gave a pIC50 of 6.70 to 8.00.

Compound `O=c1[nH]c2ccc(C(F)(F)F)cc2c(-c2ccccc2)c1O` [Compound 1.020, 3-hydroxy-4-phenyl-6-(trifluoromethyl)quinolin-2(1H)-one] showed a pIC50 at Human MAT2A [1] (class symbols) of 6.70 to 8.00. Compound `O=c1[nH]c2ccc(Cl)cc2c(-c2ccccc2Cl)c1O` [Compound 1.021, 6-chloro-4-(2-chlorophenyl)-3-hydroxyquinolin-2(1H)-one] had a pIC50 against Human MAT2A [1] (class symbols) of 6.70 to 8.00. `Cn1nccc1-c1c(O)c(=O)[nH]c2ccc(C(F)(F)F)cc12` [Compound 1.022, 3-Hydroxy-4-(1-methyl-1H-pyrazol-5-yl)-6-(trifluoromethyl)quinolin-2(1H)-one] had a pIC50 at Human MAT2A [2] of 6.70 to 8.00. `Cc1ncccc1-c1c(O)c(=O)[nH]c2ccc(C(F)(F)F)cc12` [Compound 1.023, 3-Hydroxy-4-(2-methylpyridin-3-yl)-6-(trifluoromethyl)quinolin-2(1H)-one]: the pIC50 on Human MAT2A [2] is more than 8.00.

On Human MAT2A [2], `COc1cc(C(F)(F)F)cc2c(-c3ccccc3C)c(O)c(=O)[nH]c12` [Compound 1.024, 3-Hydroxy-8-methoxy-4-(o-tolyl)-6-(trifluoromethyl)quinolin-2(1H)-one] showed a pIC50 of 6.70 to 8.00.

The compound `Cc1ncccc1-c1c(O)c(=O)[nH]c2ccc(Br)cc12` [Compound 1.025, 6-Bromo-3-hydroxy-4-(2-methylpyridin-3-yl)quinolin-2(1H)-one] gave a pIC50 at Human MAT2A [2] of 6.70 to 8.00. Still for that read-out and setting: the same measure for `Cc1ncccc1-c1c(O)c(=O)[nH]c2ccc(Cl)cc12` [Compound 1.026, 6-Chloro-3-hydroxy-4-(2-methylpyridin-3-yl)quinolin-2(1H)-one]: 6.70 to 8.00.

(Values after patent publication US20230227409A1, “QUINOLINONE DERIVATIVES AS METHIONINE ADENOSYLTRANSFERASE 2A INHIBITORS” (IDEAYA BIOSCIENCES, INC., priority 2020, published 2023).)
